The supplement of paper PMC10307832

Legend:
Experiment in all cases: relative viability (nuclei count vs DMSO), 5 days (fraction); higher = more cells survive
[1] = compound: CCN(CCO)CCCC(C)Nc1ccnc2cc(Cl)ccc12 [Hydroxychloroquine] + Cc1nc(NC(=O)N2CCC[C@H]2C(N)=O)sc1-c1ccnc(C(C)(C)C(F)(F)F)c1 [Alpelisib] (partner 2 µM)
How it was run: (§1)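 For relative viability, nuclei counts in treated wells were divided by those in vehicle wells. Lung cancer cell lines had been pin-tool dosed in 1536-well plates the day after seeding and cultured for 5 days, then fixed and stained in one step (final 0.05% Triton X-100, 1% formaldehyde, 1 ug/ml Hoechst) and imaged at 4×. Doses were one drug alone or a fixed anchor-drug dose plus five library-drug doses (not always all listed) in √10 steps, and values are duplicate-plate medians.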

[2] = compound: CCN(CCO)CCCC(C)Nc1ccnc2cc(Cl)ccc12 [Hydroxychloroquine] + COc1cc2c(Oc3ccc(NC(=O)C4(C(=O)Nc5ccc(F)cc5)CC4)cc3F)ccnc2cc1OCCCN1CCOCC1 [Foretinib] (partner 0.25 µM)
How it was run: as §1

[3] = compound: CCN(CCO)CCCC(C)Nc1ccnc2cc(Cl)ccc12 [Hydroxychloroquine] + O=C(c1cc(Cc2n[nH]c(=O)c3ccccc23)ccc1F)N1CCN(C(=O)C2CC2)CC1 [Olaparib] (partner 8 µM)
How it was run: as §1

[4] = compound: CCN(CCO)CCCC(C)Nc1ccnc2cc(Cl)ccc12 [Hydroxychloroquine] + Nc1nc2[nH]cc(CCc3ccc(C(=O)N[C@@H](CCC(=O)O)C(=O)O)cc3)c2c(=O)[nH]1 [Pemetrexed] (partner 0.2 µM)
How it was run: as §1

| Cell Line | relative viability ([1]; first compound 0.5 µM) | relative viability ([1]; first compound 1.581 µM) | relative viability ([1]; first compound 5 µM) | relative viability ([1]; first compound 15.81 µM) | relative viability ([1]; first compound 50 µM) | relative viability ([2]; first compound 0.5 µM) | relative viability ([2]; first compound 1.581 µM) | relative viability ([2]; first compound 5 µM) | relative viability ([2]; first compound 15.81 µM) | relative viability ([2]; first compound 50 µM) | relative viability ([3]; first compound 0.5 µM) | relative viability ([3]; first compound 1.581 µM) | relative viability ([3]; first compound 5 µM) | relative viability ([3]; first compound 15.81 µM) | relative viability ([3]; first compound 50 µM) | relative viability ([4]; first compound 0.5 µM) | relative viability ([4]; first compound 1.581 µM) | relative viability ([4]; first compound 5 µM) | relative viability ([4]; first compound 15.81 µM) | relative viability ([4]; first compound 50 µM) |
| --- | --- | --- | --- | --- | --- | --- | --- | --- | --- | --- | --- | --- | --- | --- | --- | --- | --- | --- | --- | --- |
| H3255 | 0.759 | 0.612 | 0.727 | 0.675 | 0.72 | 0.924 | 0.84 | 0.818 | 0.783 | 0.798 | 0.592 | 0.562 | 0.544 | 0.582 | 0.55 | 0.566 | 0.603 | 0.543 | 0.586 | 0.477 |
| EPLC-272H | 0.928 | 0.858 | 0.94 | 0.998 | 0.919 | 0.776 | 0.673 | 0.709 | 0.703 | 0.799 |  | 0.891 | 0.94 | 0.929 | 0.73 |  | 0.331 | 0.325 | 0.341 | 0.352 |
| RERF-LC-KJ | 0.778 | 0.697 | 0.732 | 0.879 | 0.852 | 0.757 | 0.825 | 0.872 | 0.918 | 0.941 | 0.917 | 0.948 | 0.896 | 0.846 | 0.933 | 0.448 | 0.466 | 0.457 | 0.489 | 0.467 |
| NCI-H1793 | 0.832 | 0.738 | 0.635 | 0.736 | 0.749 | 0.821 | 0.618 | 0.624 | 0.661 | 0.534 | 0.866 | 0.814 | 0.878 | 0.906 | 0.728 | 0.982 | 0.913 | 0.753 | 0.628 | 0.632 |
| EKVX | 0.964 | 0.867 | 0.844 | 0.846 | 0.912 | 0.824 | 0.795 | 0.753 | 0.767 | 0.75 | 0.978 | 0.755 | 0.769 | 0.763 | 1.04 | 0.385 | 0.394 | 0.32 | 0.385 | 0.423 |
| ChaGo-K-1 |  |  |  |  |  | 0.939 | 1.04 | 0.929 | 0.911 | 1.04 | 0.385 | 0.381 | 0.422 | 0.4 | 0.422 | 0.417 | 0.259 | 0.291 | 0.262 | 0.276 |
| NCI-H23 | 0.863 | 0.725 | 0.701 | 0.609 | 0.57 | 1.04 | 0.968 | 0.979 | 0.99 | 0.903 | 0.365 | 0.36 | 0.322 | 0.309 | 0.204 | 1.21 | 0.663 | 0.609 | 0.56 | 0.74 |
| EMC-BAC-2 | 0.736 | 0.708 | 0.767 | 0.727 | 0.75 | 0.998 | 0.877 | 1.08 | 0.941 | 0.985 | 0.508 | 0.439 | 0.472 | 0.484 | 0.442 | 0.49 | 0.439 | 0.434 | 0.313 | 0.411 |
| LOU-NH91 | 0.697 | 0.617 | 0.741 | 0.745 | 0.758 | 0.921 | 0.831 | 0.949 | 0.94 | 0.914 | 0.945 | 0.846 | 0.888 | 0.869 | 0.961 | 0.359 | 0.413 | 0.451 | 0.386 | 0.427 |
| LU99A | 0.481 | 0.364 | 0.534 | 0.498 | 0.619 | 0.914 | 0.724 | 0.786 | 0.789 | 0.861 | 0.261 | 0.265 | 0.228 | 0.299 | 0.254 | 0.179 | 0.194 | 0.157 | 0.198 | 0.206 |
| NCI-H1395 | 0.979 | 0.899 | 0.975 | 1.09 | 0.954 | 1.06 | 0.989 | 0.872 | 0.963 | 1.02 | 0.46 | 0.467 | 0.471 | 0.512 | 0.423 | 0.83 | 0.936 | 0.717 | 0.793 | 0.779 |
| NCI-H520 | 1.04 | 0.776 | 0.901 | 0.999 | 0.89 | 0.833 | 0.781 | 0.801 | 0.839 | 0.748 | 0.344 | 0.354 | 0.304 | 0.337 | 0.364 | 0.76 | 0.729 | 0.596 | 0.657 | 0.798 |
| 201T | 1.03 | 0.916 | 1.02 | 1.03 | 1.01 | 1.21 | 1.05 | 1.03 | 1.2 | 1.2 | 0.788 | 0.821 | 0.826 | 0.857 | 0.829 | 0.346 | 0.331 | 0.338 | 0.307 | 0.339 |
| NCI-H1944 | 0.797 | 0.778 | 0.858 | 0.794 | 0.848 | 0.951 | 0.936 | 0.775 | 0.89 | 0.785 | 0.417 | 0.445 | 0.416 | 0.414 | 0.402 | 0.691 | 0.586 | 0.531 | 0.586 | 0.648 |
| NCI-H2405 | 0.961 | 0.592 | 0.879 | 0.856 | 0.845 | 1.11 | 0.975 | 1.05 | 1.02 | 1.05 | 0.934 | 0.87 | 0.836 | 0.886 | 0.861 | 1.07 | 1.05 | 0.984 | 0.515 | 1.03 |
| NCI-H1703 | 0.401 | 0.21 | 0.326 | 0.343 | 0.367 | 0.402 | 0.443 | 0.313 | 0.347 | 0.379 | 0.424 | 0.431 | 0.556 | 0.467 | 0.446 |  |  |  |  |  |
